Experimental data as given in US20130245038A1, “Method For Selecting Or Identifying A Subject For V1B Antagonist Therapy” (ABBVIE DEUTSCHLAND GMBH & CO. KG, priority 2012, published 2013).

Tests used:
Assay type in all cases: in vivo, human
HPA axis activity [1] = assay: Urine glucocorticoids in healthy adults who received Compound A or placebo
Description: Higher urine glucocorticoids subjects are those in whom Compound A effects larger decreases of tonic HPA axis activity, and thus an appropriate population for treatment of MDD using a V1B antagonist.

[2] = tested on: physiological response to a stressor (CRH challenge); assay: Cortisol reactivity to a CRH challenge in MDD subjects of the clinical study; conditions: maximum post-CRH serum cortisol divided by pre-CRH serum cortisol, Day 7
Description: High AVP was defined as ≧8.6 pg/mL, in a sample drawn at approximately 8 am or 2 pm on the day prior to initiation of study drug administration. The analysis of covariance model for Day 7 cortisol reactivity included Day −1 (baseline) cortisol reactivity as a covariate and factors for investigator, treatment, AVP class and treatment * AVP class interaction. A randomized, placebo-controlled, double-blind clinical study of the safety and pharmacodynamics of Compound A in subjects with MDD was conducted. Fifty-one subjects with a M.I.N.I.-confirmed primary diagnosis of MDD and a clinical global impression of severity of 3 or 4 were randomized to 800 mg Compound A QD (n=31) or matching placebo (n=20) for 7 days. Subjects were confined at clinical sites from two days prior to initial study drug administration until 24 hours after the last dose of study drug. HPA axis function was thoroughly assessed prior to study drug administration and on the 6th and 7th dosing days. A panel of genetic variants related to HPA axis function was assayed. One stated aim of this study was to define a means to identify MDD subjects more likely to respond to Compound A, prior to Compound A administration. […]

subjects with MDD [3] = assay: Randomized, placebo-controlled, double-blind clinical study in subjects with MDD: MASQ and HAM-D symptom scores
HPA axis activity [4] = assay: HPA axis function measures (plasma ACTH, serum, saliva and urine cortisol, urine glucocorticoids) in MDD subjects of the clinical study; conditions: for Reduction of urine glucocorticoids compared to placebo: Day 6 to 7
Protocol: Higher urine glucocortioids was defined as ≧3.44 mg per mg creatinine, in a 24-hour collection on the day prior to initiation of study drug administration. The analysis of covariance model for Day 6 to 7 urine glucocorticoids included Day −2 to −1 (baseline) urine glucocorticoids as a covariate and factors for investigator, treatment and treatment * baseline urine glucocorticoids interaction.
(§1) A randomized, placebo-controlled, double-blind clinical study of the safety and pharmacodynamics of Compound A in subjects with MDD was conducted. Fifty-one subjects with a M.I.N.I.-confirmed primary diagnosis of MDD and a clinical global impression of severity of 3 or 4 were randomized to 800 mg Compound A QD (n=31) or matching placebo (n=20) for 7 days. Subjects were confined at clinical sites from two days prior to initial study drug administration until 24 hours after the last dose of study drug. HPA axis function was thoroughly assessed prior to study drug administration and on the 6th and 7th dosing days. A panel of genetic variants related to HPA axis function was assayed. One stated aim of this study was to define a means to identify MDD subjects more likely to respond to Compound A, prior to Compound A administration.
In a ROC analysis, the dependent variable was responder status based on a cutoff on GDM of −0.53. The independent variable was baseline amount of urine glucocorticoids (the sum of cortisol, cortisone, alpha-tetrahydrocortisol, beta-tetrahydrocortisol and tetrahydrocortisone) collected during a 24-hour interval, divided by the amount of creatinine in the same urine collection. The optimal cutoff was 3.44 mg glucocorticoids per mg creatinine. This provided a sensitivity of 58% (14/24 Compound A responders included) and specificity of 67% (4 of 6 Compound A non-responders excluded). One Compound A subject was not included in this analysis due to missing urine glucocorticoid data.

subjects with MDD [5] = assay: Randomized, placebo-controlled, double-blind clinical study in subjects with MDD: MASQ and HAM-D symptom scores; remark: listed apart in the source
Description: High AVP was defined as ≧8.6 pg/mL, in a sample drawn at approximately 8 am or 2 pm on the day prior to initiation of study drug administration. Least squares means and standard errors are shown from analyses of covariance that included Day −1 (baseline) score as a covariate and factors for investigator, treatment, AVP class and treatment * AVP class interaction.
as §1
AVP was the only parameter initially analyzed as a potential predictor of Compound A response as the daytime plasma level prior to study drug administration, measured at any of three times of day (approximately 8 am, 2 pm, and 10 pm), was the most prominent difference of baseline HPA axis function between MDD subjects in this study and HNV subjects of other studies.
Receiver operator characteristic (ROC) analysis was used. In a first ROC, the dependent variable was treatment and the independent variables were the MASQ subscales. This ROC aimed to define MASQ scale score changes that were characteristic of subjects who received Compound A and not characteristic of those who received placebo. Such score changes can be thought to distinguish Compound A responders from Compound A non-responders. Of the five MASQ subscales, General Distress Mixed (GDM) and Depressive (GDD) subscales differentiated Compound A from placebo subjects. […] Similar results were obtained when the dependent variables were analyzed as percent, rather than absolute, change from baseline.
The interaction of AVP (high v normal) and treatment (Compound A v placebo) is shown below. The dependent variables were the MASQ scale scores and the Hamilton Depression Rating Scale (HAM-D)—version score on Day 7. The corresponding scale score on Day −2 was a covariate in each model. Each model included factors for investigator, AVP, treatment and the interaction of AVP and treatment. […] MASQ total scores were normalized to a 1 to 5 scale.

[6] = Compound A 800 mg QD for 7 days v placebo, MDD subjects
[7] = ROC, dependent variable treatment (Compound A 800 mg QD, n=31, v placebo, n=20), MASQ GDD score change, cutoff X −0.58
[8] = ROC, dependent variable treatment (Compound A 800 mg QD, n=31, v placebo, n=20), MASQ GDM score change, cutoff X −0.53
[9] = high AVP ≧8.6 pg/mL, Compound A 800 mg QD v placebo

CCOc1ncccc1[C@]1(NC(=O)N2CCN(C3CCN(C)CC3)CC2)C(=O)N(S(=O)(=O)c2ccc(OC)cc2OC)c2ccc(C#N)cc21 [Compound A]
Relationship of baseline urine glucocorticoids and reduction of urine glucocorticoids compared to placebo (HPA axis activity [1]): The same relationship has been observed | Physiological response to a stressor (CRH challenge) compared to placebo ([2]; high AVP MDD subjects): lower physiological response to a stressor | Physiological response to a stressor (CRH challenge) compared to placebo ([2]; normal AVP MDD subjects): limited or no difference of stress response | ANCOVA factor for treatment on MASQ AD, AA and GDA subscales (subjects with MDD [3]; [6]): not | False Negative (subjects with MDD [3]; [7]): 3 | True Positive (subjects with MDD [3]; [7]): 28 | Interaction of urine glucocorticoids divided by creatinine (higher v lower) and treatment, MASQ GDM, GDD, GDA, AA and 17- and 7-item HAM-D (subjects with MDD [3]; higher ≧3.44 mg per mg creatinine, 24-hour collection): numerically favorable trends | Interaction of urine glucocorticoids divided by creatinine (higher v lower) and treatment, MASQ and HAM-D scores on Day 7 (subjects with MDD [3]; higher ≧3.44 mg per mg creatinine, 24-hour collection, all dependent variables): not statistically significant | Symptom changes on MASQ and HAM-D (subjects with MDD [3]; subset of subjects distinguished by AVP, copeptin and rs7088418/rs17169521 genotypes): more favorable symptom changes | Symptom changes on MASQ and HAM-D (subjects with MDD [3]; subset of subjects distinguished by NR3C1 genotypes (rs10482672; similar for rs17100236)): unfavorable symptom changes | Neuroendocrine effects on plasma ACTH, serum cortisol, urine cortisol and total glucocorticoids, high AVP v normal AVP subjects (HPA axis activity [4]; MDD subjects, comparison of the two AVP groups): did not differ | Reduction of urine glucocorticoids compared to placebo (HPA axis activity [4]; higher urine glucocorticoids MDD subjects (≧3.44 mg per mg creatinine at baseline)): larger reductions of urine glucocorticoids | Reduction of urine glucocorticoids compared to placebo (HPA axis activity [4]; lower urine glucocorticoids MDD subjects): limited or no difference of reduction of urine glucocorticoids | ANCOVA factor for treatment on MASQ GDM and GDD subscales (subjects with MDD [5]; [6]): statistically significant factors for treatment | False Negative (subjects with MDD [5]; [8]): 7 | True Positive (subjects with MDD [5]; [8]): 24 | Interaction of AVP (high v normal) and treatment, MASQ GDD score on Day 7 (subjects with MDD [5]; [9]): statistically significant | Interaction of AVP (high v normal) and treatment, MASQ GDM, AD and 7-item HAM-D scores on Day 7 (subjects with MDD [5]; [9]): numerically favorable trends
